As a reminder, the IC50 is the concentration that inhibits the measured activity by half. Low values mean inhibition by little substance, high ones a need for much substance. The term inhibition denotes the share of the control response that was lost under treatment.

The test system of assay [1] is multiple myeloma cell lines with acquired resistance. Nature of the assay: Proliferation (CellTiter-Glo, 5 days) of parental and lenalidomide- or pomalidomide-resistant MM cell lines. It is filed as cell-based, human. The protocol: Cell lines were treated with (FIG. 11A) Pomalidomide, or (FIG. 11B) Compound 2 for 5 days and IC50 values were assessed using an ATP determination assay (CellTiter-Glo). Percent control was calculated by subtracting the background and normalizing to the DMSO control (100% of control).
Cells were treated for 5 days and then assessed using an ATP determination assay (CellTiter-Glo). The percentage of control was calculated by subtracting the background and normalizing to the DMSO control (100% of control).
Proliferation was assessed using the CellTitre-Glo® assay.
On the technique in general: Cellular ATP, detected with luciferase, serves as a proxy for viable cell number.

The next assay relates to IL-2. Nature of the assay: IL-2 secretion from anti-CD3 antibody-stimulated healthy donor PBMCs. Format: cell-based, human. The protocol:
The immunomodulatory activity of Compound 2 on T cell receptor (TCR)-activated healthy PBMCs was assessed.
The effect of Compound 2 in combination with different concentrations of dexamethasone on the ability of PBMCs to produce IL-2 was explored. […]

Another assay concerns the target Ikaros (Homo sapiens, UniProt Q13422+Q96SW2). Nature of the assay: Phase 1 study, Ikaros expression by flow cytometry in CD3+ T cells. Format: in vivo. Also on record: The effects of Compound 2 on the degradation of Ikaros in CD4+ and CD8+ T cells; endogenous in cells; CD34+ bone marrow cells of healthy donors; CD3+ T cells of multiple myeloma patients. Conditions: QD days 1-10, 15-24/28 and BID days 1-3, 15-17/28; recovered during dosing interruptions. The protocol:
FIG. 25A and FIG. 25B illustrate that Compound 2 induced Ikaros degradation in CD3+ T cells from peripheral blood of relapsed/refractory multiple myeloma patients after (FIG. 25A) the once daily (QD) 1-10, 15-24/28 schedule, or (FIG. 25B) the twice daily (BID) 1-3, 15-17/28 schedule.
Ikaros expression was measured by flow cytometry in CD3+ T cells before and during Compound 2 treatment in two different dosing schedules (QD administration on days 1 to 10 and days 15 to 24 of a 28 day cycle, and BID administration on days 1 to 3 and days 15 to 17 of a 28 day cycle).
A general note: A flow cytometer gives signals particle by particle.

For a further assay, the system named is H929-1051. Briefly: Tumor cell lysis by anti-CD3-activated, compound-treated PBMCs, co-culture with untreated H929-1051. To be noted: Homo sapiens, PBMC; lenalidomide-resistant H929-1051, untreated; 24-hour co-culture. It is filed as cell-based.
In another assay the test system is sBCMA. Briefly: Phase 1 study, sBCMA in serum by ELISA. Conditions: one subject; with dexamethasone. Format: in vivo, human. The protocol: This is an open-label, multi-center, international, Phase 1 study to assess the safety, PK/PD and preliminary efficacy of Compound 2 in combination with dexamethasone in subjects with RRMM.
Serum samples were taken before and during Compound 2 treatment at specified time points. The expression of sBCMA was measured by an ELISA assay.

Another assay relates to NCI-H929. Briefly: Tumor cell lysis by anti-CD3-activated, compound-treated PBMCs, co-culture with untreated NCI-H929. It is filed as cell-based. Conditions: Homo sapiens; lenalidomide-sensitive NCI-H929, untreated; 24-hour co-culture.
The subject of another assay is Ikaros and Aiolos. Nature of the assay: Immunoblot of Ikaros and Aiolos in H929-1051 cells. It is filed as cell-based, human. Conditions: within 4 hours. The protocol:
FIG. 6A and FIG. 6B illustrate that Compound 2 degraded Ikaros and Aiolos in a concentration dependent manner, which induced apoptosis and cell cycle arrest in pomalidomide-resistant multiple myeloma cells. Shown is immunoblot analysis of pomalidomide-resistant MM cells (H929-1051) incubated with Compound 2 for (FIG. 6A) 4 hours or (FIG. 6B) 72 hours.
Incubation with concentrations as low as 1 nM of Compound 2 promoted the robust degradation of Ikaros and Aiolos within 4 hours (FIG. 6A).
(In western blotting, separated proteins are transferred to a membrane and probed.)

A further assay concerns the target T1, Aiolos (Homo sapiens, UniProt Q96SW2+Q9UKT9).
T1 construct: expressed in transfected cells; host or cells: DF15 multiple myeloma cells
Briefly: Aiolos degradation, ePL luminescence assay in DF15 cells expressing ePL-tagged Aiolos. It is filed as cell-based. To be noted: for DC50: read-out: Degradation of Aiolos IC50, DF15 cells. The protocol:
FIG. 1 illustrates that Compound 2 and Compound 3 degraded Aiolos protein in a time and concentration dependent manner. DF15 cells expressing Enhanced ProLabel (ePL)-tagged Aiolos were incubated with Compound 2 (triangle) or Compound 3 (square) for 45 minutes, 90 minutes, or 3 hours at the indicated concentrations. Cell extracts were then generated and the amount of Aiolos-ePL protein was determined by ePL luminescence assay.
The relative effectiveness of Compound 2 and Compound 3 to promote the destruction of Aiolos protein by the CRL4^CRBN E3 ubiquitin ligase was investigated in DF15 myeloma cells at different time points (45 minutes, 90 minutes, and 3 hours). DF15 cells expressing Enhanced ProLabel (ePL)-tagged Aiolos were incubated with Compound 2 or Compound 3 for 45 minutes, 90 minutes, or 3 hours. Cell extracts were then generated and the amount of Aiolos ePL protein was determined by ePL luminescence assay. Values shown in Table 1 correspond to data presented in FIG. 1 for Aiolos content vs. concentration.

Like-named read-outs stand apart in the source and are kept apart here. A value given as a limit tells only on which side of the number the result lay.

T1 sequence (Q9UKT9 whole entry): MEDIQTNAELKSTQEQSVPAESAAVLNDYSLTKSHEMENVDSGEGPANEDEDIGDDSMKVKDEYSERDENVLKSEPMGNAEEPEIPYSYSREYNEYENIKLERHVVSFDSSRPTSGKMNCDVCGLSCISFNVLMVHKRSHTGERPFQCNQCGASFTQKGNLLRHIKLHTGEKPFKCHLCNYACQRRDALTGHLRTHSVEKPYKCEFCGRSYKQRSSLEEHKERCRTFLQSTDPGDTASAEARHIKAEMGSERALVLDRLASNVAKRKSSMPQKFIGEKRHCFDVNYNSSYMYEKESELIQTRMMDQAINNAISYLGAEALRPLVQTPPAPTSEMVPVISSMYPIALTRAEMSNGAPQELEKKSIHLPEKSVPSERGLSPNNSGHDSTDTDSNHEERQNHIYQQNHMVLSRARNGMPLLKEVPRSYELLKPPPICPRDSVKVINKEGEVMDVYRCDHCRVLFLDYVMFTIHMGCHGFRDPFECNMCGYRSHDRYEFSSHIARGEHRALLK
T1 sequence (Q96SW2 whole entry): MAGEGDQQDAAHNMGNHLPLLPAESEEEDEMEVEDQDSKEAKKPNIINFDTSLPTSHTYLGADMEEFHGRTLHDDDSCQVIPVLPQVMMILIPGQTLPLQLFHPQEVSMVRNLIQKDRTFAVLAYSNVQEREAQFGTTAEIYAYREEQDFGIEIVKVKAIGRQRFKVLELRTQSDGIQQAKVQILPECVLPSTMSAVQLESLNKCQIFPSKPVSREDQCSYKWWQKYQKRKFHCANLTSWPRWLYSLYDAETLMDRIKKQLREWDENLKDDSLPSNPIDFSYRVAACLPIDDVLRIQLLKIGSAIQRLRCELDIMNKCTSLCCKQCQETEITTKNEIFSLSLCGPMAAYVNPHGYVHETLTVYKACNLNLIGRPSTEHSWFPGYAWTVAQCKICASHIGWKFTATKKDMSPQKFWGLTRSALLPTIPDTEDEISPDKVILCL
T1 sequence (Q16531 2-1140, further chain): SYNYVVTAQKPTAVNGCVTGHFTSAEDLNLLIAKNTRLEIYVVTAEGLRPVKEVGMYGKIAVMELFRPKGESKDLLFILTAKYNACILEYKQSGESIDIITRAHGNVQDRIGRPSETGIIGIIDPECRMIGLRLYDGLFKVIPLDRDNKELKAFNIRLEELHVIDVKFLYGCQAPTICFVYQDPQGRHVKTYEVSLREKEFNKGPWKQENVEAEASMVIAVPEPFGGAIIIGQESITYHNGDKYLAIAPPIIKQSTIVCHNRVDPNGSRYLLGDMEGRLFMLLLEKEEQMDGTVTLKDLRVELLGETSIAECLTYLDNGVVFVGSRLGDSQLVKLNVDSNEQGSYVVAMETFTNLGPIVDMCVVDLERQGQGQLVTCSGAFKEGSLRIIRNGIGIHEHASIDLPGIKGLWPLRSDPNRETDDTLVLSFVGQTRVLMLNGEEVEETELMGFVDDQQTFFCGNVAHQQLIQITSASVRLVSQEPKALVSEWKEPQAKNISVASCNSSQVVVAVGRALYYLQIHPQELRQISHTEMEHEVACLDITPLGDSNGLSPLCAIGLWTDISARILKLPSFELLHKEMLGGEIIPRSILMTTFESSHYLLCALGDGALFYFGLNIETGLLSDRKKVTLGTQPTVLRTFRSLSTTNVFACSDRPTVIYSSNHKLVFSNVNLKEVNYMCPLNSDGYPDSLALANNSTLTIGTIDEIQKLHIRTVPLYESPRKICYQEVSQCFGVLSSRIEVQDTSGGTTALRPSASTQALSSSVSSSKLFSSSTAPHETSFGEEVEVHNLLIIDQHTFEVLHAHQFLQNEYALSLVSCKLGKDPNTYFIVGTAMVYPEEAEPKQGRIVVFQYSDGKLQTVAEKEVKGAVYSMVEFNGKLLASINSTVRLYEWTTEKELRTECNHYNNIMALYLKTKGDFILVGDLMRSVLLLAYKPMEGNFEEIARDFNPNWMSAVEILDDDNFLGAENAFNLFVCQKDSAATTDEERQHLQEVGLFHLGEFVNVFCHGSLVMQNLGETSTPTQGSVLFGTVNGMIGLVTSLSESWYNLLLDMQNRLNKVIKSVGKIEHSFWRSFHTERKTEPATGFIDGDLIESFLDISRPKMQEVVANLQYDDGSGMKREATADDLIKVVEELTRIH
Sequence of Ikaros (Q13422 whole entry): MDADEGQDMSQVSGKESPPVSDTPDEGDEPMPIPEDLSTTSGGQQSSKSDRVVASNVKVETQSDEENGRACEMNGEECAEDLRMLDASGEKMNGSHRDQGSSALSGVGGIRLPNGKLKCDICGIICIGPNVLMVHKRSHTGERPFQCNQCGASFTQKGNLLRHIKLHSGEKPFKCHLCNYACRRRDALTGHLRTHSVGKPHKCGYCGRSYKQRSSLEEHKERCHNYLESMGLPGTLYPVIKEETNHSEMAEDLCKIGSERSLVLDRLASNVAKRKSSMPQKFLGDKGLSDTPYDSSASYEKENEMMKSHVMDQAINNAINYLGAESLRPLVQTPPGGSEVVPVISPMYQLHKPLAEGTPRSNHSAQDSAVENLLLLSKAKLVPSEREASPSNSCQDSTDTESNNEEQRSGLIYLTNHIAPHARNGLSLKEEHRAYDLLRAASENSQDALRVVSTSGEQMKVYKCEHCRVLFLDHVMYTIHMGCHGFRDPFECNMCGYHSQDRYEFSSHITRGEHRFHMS
Sequence of Ikaros (Q16531 2-1140, further chain): as the sequence (Q16531 2-1140, further chain) above
Sequence of Ikaros (Q96SW2 whole entry): as the sequence (Q96SW2 whole entry) above

For the molecule `N#Cc1ccc(N2CCN(Cc3ccc(COc4cccc5c4CN([C@H]4CCC(=O)NC4=O)C5=O)cc3)CC2)c(F)c1` [Compound 2, (S)-4-(4-(4-(((2-(2,6-dioxopiperidin-3-yl)-1-oxoisoindolin-4-yl)oxy)methyl)benzyl)piperazin-1-yl)-3-fluorobenzonitrile], the “sensitivity of cell lines with acquired resistance and low CRBN” value in assay [1] is on record as “sensitive”. For the same molecule, the anti-proliferative activity result in assay [1] (DF15R cell line, lacks CRBN expression) was “little anti-proliferative activity”. Moreover, the “peak IL-2 production above the vehicle control” value in the assay with IL-2 (24 hours) was 5.5 fold. Moreover, in the assay on IL-2 (Homo sapiens, PBMC, 72 h, read-out: IL-2 secretion, mean half-maximal effective concentration (EC50)), the EC50 is 14 pM. In addition, the “Compound 2 concentration at peak IL-2 response” value with IL-2 (in combination with 10 nM dexamethasone) was determined as 10 pM. In addition, in the assay with IL-2 (in combination with 10 nM dexamethasone, 4 donors, 72 hours), the “IL-2 induction above the vehicle control” value is reported as “at least 10 fold”. The IL-2 induction entry in the assay with IL-2 (in combination with 100 nM dexamethasone) is recorded as “little induction of IL-2 above baseline”. In addition, the “Ikaros degradation in CD3+ T cells” value on Ikaros is listed as “dose dependent”. Further, the IC50 in the assay on H929-1051 came to 200 pM; with NCI-H929, 5000 pM. For the same molecule, the “decrease in sBCMA from baseline” value with sBCMA is given as more than 80%. Besides, the “lowest concentration promoting robust degradation of Ikaros and Aiolos” value with Ikaros and Aiolos is on record as 1 nM. For the same molecule, on Aiolos (45 minutes, 90 minutes, 3 hours), the “manner of Aiolos degradation” value is “time-dependent and concentration-dependent”. The inhibition at 0.001 µM on Aiolos (DF15, read-out: inhibition at 0.001 μM) is 27%. Moreover, the DC50 is more than 100000 pM on Aiolos (45 minutes incubation), 360 pM on Aiolos (90 minutes incubation) and 31 pM on Aiolos (3 hours incubation).

For the origin of these results see patent US12510533B2, “Methods for treating multiple myeloma and the use of companion biomarkers for 4-(4-(4-(((2-(2,6-dioxopiperidin-3-yl)-1-oxoisoindolin-4-yl)oxy)methyl)benzyl)piperazin-1-yl)-3-fluorobenzonitrile” (Celgene Corporation, priority 2018, dated 2025).
